Experimental data: article PMC11220827 (Frontiers in Pharmacology, 2024)
Read-outs that look alike come from different tables or passages of the source.

System: HepG2 cells
Experiment: cells
Assay type: cell-based
[1] = HepG2, 24 h, NR = No response observed

`c1ccc2c(c1)cc1ccc3cccc4ccc2c1c34` [Benzo(a)pyrene, reference compound] was tested, and the AC50 (Homo sapiens, HepG2, 24 h, read-out: AhR Translocation: AC50) was greater than 100 µM and the “AhR Translocation: MEC” value (human, 24 h) was 0.389 µM.

`CC[C@@]1(O)C(=O)OCc2c1cc1n(c2=O)Cc2cc3ccccc3nc2-1` [(S)-(+)-camptothecin, reference compound] was tested, and the “DNA damage: Phospho-p53: MEC” value (HepG2, 24 h) was 0.412 µM, the “DNA damage: p-H2AX: MEC” value (HepG2, 24 h) was 1.06 µM and the “DNA damage: Phospho-p53: Effect” value [1] was “increase”. For the same compound, the “DNA damage: p-H2AX: Effect” value [1] was “increase”, the AC50 (HepG2, 24 h, read-out: DNA damage: Phospho-p53: AC50) was 1.25 µM and the AC50 (HepG2, 24 h, read-out: DNA damage: p-H2AX: AC50) was 9.1 µM.

In the case of `OC[C@@H](O)[C@@H](O)[C@H](O)[C@@H](O)CO` [Sorbitol, reference compound], the “Osmotic & heat shock: hsp70: Effect” value is reported as “increase”, the AC50 (Homo sapiens, HepG2, 24 h, read-out: Osmotic & heat shock: hsp70: AC50) is reported as 91700 µM and the “Osmotic & heat shock: hsp70: MEC” value (human, 24 h) is reported as 29000 µM.

In the case of `C[C@H](CCC(=O)O)C[C@H](C)C[C@H](C)C(=O)/C=C(\O)[C@H](C)C[C@H](C)C/C=C/[C@@H](C)[C@@H](O)[C@@H](C)[C@@H](O)C[C@@H]1CC[C@@](C)([C@H]2CC[C@@](C)([C@@H](C)O)O2)O1` [Ionomycin, reference compound], the “Apoptosis & necrosis: caspase 3/7: MEC” value (HepG2, 24 h) is reported as 0.0225 µM, the “Apoptosis & necrosis: cell cycle arrest: MEC” value (HepG2, 24 h) is reported as 0.0283 µM and the “Inflammation & pH: IL-8: MEC” value (HepG2, 24 h) is reported as 0.496 µM. The “Apoptosis & necrosis: caspase 3/7: Effect” value [1] was “increase”, the “Apoptosis & necrosis: cell cycle arrest: Effect” value [1] was “decrease” and the “Inflammation & pH: IL-8: Effect” value [1] was “increase”. It also gave an AC50 (Homo sapiens, HepG2, 24 h, read-out: Apoptosis & necrosis: caspase 3/7: AC50) of 0.798 µM, an AC50 (Homo sapiens, HepG2, 24 h, read-out: Apoptosis & necrosis: cell cycle arrest: AC50) of 0.056 µM and an AC50 (Homo sapiens, HepG2, 24 h, read-out: Apoptosis & necrosis: cell membrane permeability: AC50) of 30.8 µM. The AC50 (Homo sapiens, HepG2, 24 h, read-out: Inflammation & pH: IL-8: AC50) was greater than 10 µM.

For `C=C(CC)C(=O)c1ccc(OCC(=O)O)c(Cl)c1Cl` [Ethacrynic acid, reference compound], the AC50 (Homo sapiens, HepG2, 24 h, read-out: Oxidative stress: HMOX1: AC50) was 19.2 µM, the AC50 (Homo sapiens, HepG2, 24 h, read-out: Oxidative stress: NRF2: AC50) was 28 µM and the AC50 (Homo sapiens, HepG2, 24 h, read-out: Oxidative stress: SRXN1: AC50) was 19 µM. For the same compound, the “Oxidative stress: HMOX1: MEC” value (human, 24 h) was 0.824 µM, the “Oxidative stress: NRF2: MEC” value (human, 24 h) was 3.52 µM and the “Oxidative stress: SRXN1: MEC” value (human, 24 h) was 6.17 µM.

In the case of `CN(CCOc1ccc(CC2SC(=O)NC2=O)cc1)c1ccccn1` (stereo not shown) [Rosiglitazone, reference compound], the AC50 (Homo sapiens, HepG2, 24 h, read-out: Mitochondrial oxidative stress: PGC1α: AC50) is reported as greater than 125 µM and the “Mitochondrial oxidative stress: PGC1α: MEC” value (human, 24 h) is reported as 67.8 µM.

For `Cc1oncc1C(=O)Nc1ccc(C(F)(F)F)cc1` [Leflunamide, reference compound], the “Nuclear size: Effect” value was “increase”, the “Nuclear size: MEC” value was 1.18 µM and the AC50 (HepG2, 24 h, read-out: Nuclear size: AC50) was 9.87 µM.

Tunicamycin [reference compound] was tested, and the “ER stress panel 1: BiP: MEC” value (HepG2, 24 h) was less than 0.391 µM, the “ER stress panel 1: ER integrity: MEC” value (HepG2, 24 h) was 0.453 µM and the “ER stress panel 1: XBP1: MEC” value (HepG2, 24 h) was 0.532 µM. The “ER stress panel 2: ATF4: MEC” value (HepG2, 24 h) was less than 0.391 µM, the “ER stress panel 2: CHOP: MEC” value (HepG2, 24 h) was 0.955 µM and the “ER stress panel 1: BiP: Effect” value [1] was “increase”. For the same compound, the “ER stress panel 1: ER integrity: Effect” value [1] was “increase”, the “ER stress panel 1: XBP1: Effect” value [1] was “increase” and the “ER stress panel 2: ATF4: Effect” value [1] was “increase”. For the same compound, the “ER stress panel 2: CHOP: Effect” value [1] was “increase”, the AC50 (HepG2, 24 h, read-out: ER stress panel 1: BiP: AC50) was greater than 1.56 µM and the AC50 (HepG2, 24 h, read-out: ER stress panel 1: ER integrity: AC50) was 2.22 µM. The AC50 (HepG2, 24 h, read-out: ER stress panel 1: XBP1: AC50) was greater than 3.13 µM, the AC50 (HepG2, 24 h, read-out: ER stress panel 2: ATF4: AC50) was 27.9 µM and the AC50 (HepG2, 24 h, read-out: ER stress panel 2: CHOP: AC50) was greater than 6.25 µM.

`CCCCCC[C@H]1C(=O)O[C@H](C)[C@H](NC(=O)c2cccc(NC=O)c2O)C(=O)O[C@@H](C)[C@@H]1OC(=O)CC(C)C` [Antimycin A, reference compound] was tested, and the “Mitochondrial mass: Effect” value [1] was “increase” and the AC50 (Homo sapiens, HepG2, 24 h, read-out: Mitochondrial mass: AC50) was 0.245 µM.

For `[Cl-].[Na+]` [Sodium chloride, reference compound], the “Osmotic & heat shock: NFAT: MEC” value (HepG2, 24 h) was 1430 µM, the “Osmotic & heat shock: NFAT: Effect” value [1] was “increase” and the AC50 (HepG2, 24 h, read-out: Osmotic & heat shock: NFAT: AC50) was greater than 80000 µM.
